Data on 25 compounds can be found in patent publication US8557796B2, “Substituted 1-oxa-2,8-diaza-spiro [4,5] dec-2-ene derivatives and related treatment methods” (Gruenenthal GmbH, priority 2001, dated 2013).

Each structure is given as a SMILES string.

T1 sequence (P31652 whole entry): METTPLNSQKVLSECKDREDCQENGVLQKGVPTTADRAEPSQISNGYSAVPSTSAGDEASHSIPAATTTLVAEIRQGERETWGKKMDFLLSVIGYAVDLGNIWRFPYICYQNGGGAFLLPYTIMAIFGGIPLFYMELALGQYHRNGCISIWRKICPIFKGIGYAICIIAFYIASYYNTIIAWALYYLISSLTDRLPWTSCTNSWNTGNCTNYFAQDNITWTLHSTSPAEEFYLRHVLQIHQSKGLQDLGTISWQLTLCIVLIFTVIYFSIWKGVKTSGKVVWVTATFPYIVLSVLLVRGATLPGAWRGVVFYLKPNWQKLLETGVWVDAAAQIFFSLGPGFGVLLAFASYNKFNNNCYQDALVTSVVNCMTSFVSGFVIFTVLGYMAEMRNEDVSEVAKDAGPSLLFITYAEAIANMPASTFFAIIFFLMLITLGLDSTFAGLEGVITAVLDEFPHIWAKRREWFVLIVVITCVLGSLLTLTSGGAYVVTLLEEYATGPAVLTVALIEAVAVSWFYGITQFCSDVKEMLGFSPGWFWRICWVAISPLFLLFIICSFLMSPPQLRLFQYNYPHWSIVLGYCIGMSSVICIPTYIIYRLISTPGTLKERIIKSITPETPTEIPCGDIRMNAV

This assay concerns the target T1, 5HT-uptake (Rattus norvegicus, UniProt P31652).
T1 construct: synaptosomes from rat brain regions were freshly isolated; from tissue; host or cells: P2 synaptosome fraction from rat brain regions
Put plainly: Serotonin uptake inhibition (5HT uptake) in synaptosomes. Particulars: rat brain synaptosomes. The class given is biochemical.
Text: Tests on Serotonin Uptake (5HT Uptake Inhibition)
In order to be able to carry out these in vitro studies, synaptosomes from rat brain regions were freshly isolated.
For the compound `COc1cc(OC)cc(N2CCN(C(=O)C3=NOC4(CCN(S(=O)(=O)c5ccc(Cl)s5)CC4)C3)CC2)c1` [Example 71, [8-(5-chloro-thiophene-2-sulphonyl)-1-oxa-2,8-diaza-spiro[4,5]dec-2-en-3-yl]-[4-(3,5-dimethoxy-phenyl)-piperazin-l-yl]-methanone], the “5HT-uptake, 10 μM, % inhibition” value came to 43%. The term inhibition denotes how much of the control response was suppressed. A higher inhibition goes with a response far below the control. As for `CN(C)S(=O)(=O)N1CCC2(CC1)CC(C(=O)NCc1ccc(C(F)(F)F)c(F)c1)=NO2` [Example 72, 8-dimethylsulphamoyl-1-oxa-2,8-diaza-spiro[4,5]dec-2-ene-3-carboxylic acid 3-fluoro-4-trifluoromethyl-benzylamide], the inhibition at 10 µM came out at 42%. As for `CCCC(=O)N1CCC2(CC1)CC(C(=O)NC1CCN(C(=O)OCC)CC1)=NO2` [Example 74, 4-[(8-butyryl-1-oxa-2,8-diaza-spiro[4,5]dec-2-ene-3-carbonyl)-amino]-piperidine-l-carboxylic acid ethyl ester], the “5HT-uptake, 10 μM, % inhibition” value is 43%. Compound `Cc1cnc(C(=O)N2CCN(C(=O)C3=NOC4(CCN(S(=O)(=O)c5ccc(F)cc5)CC4)C3)CC2)cn1` [Example 76, [8-(4-fluoro-benzenesulphonyl)-1-oxa-2,8-diaza-spiro[4,5]dec-2-ene-3-yl]-[4-(5-methyl-pyrazine-2-carbonyl)-piperazin-1-yl]-methanone] returned an inhibition at 10 µM of 42%. Same read-out and setting: then `CN(C)S(=O)(=O)N1CCC2(CC1)CC(C(=O)NCc1ccc(F)cc1F)=NO2` [Example 77, 8-dimethylsulphamoyl-1-oxa-2,8-diaza-spiro[4,5]dec-2-ene-3-carboxylic acid 2,4-difluorobenzylamide], with 41%; and `CCOC(=O)CCNC(=O)C1=NOC2(CCN(C(=O)c3cc(F)cc(F)c3)CC2)C1` [Example 81, 3-{[8-(3,5-difluoro-benzoyl)-1-oxa-2,8-diaza-spiro[4,5]dec-2-ene-3-carbonyl]-amino}-propionic acid ethyl ester], with 46%. The same measure, in the same setting: the result for `CCCS(=O)(=O)N1CCC2(CC1)CC(C(=O)NCC(C)C)=NO2` [Example 82, 8-(propane-1-sulphonyl)-1-oxa-2,8-diaza-spiro[4,5]dec-2-ene-3-carboxylic acid isobutyl-amide] reads 42%; that for `O=C(C1=NOC2(CCN(S(=O)(=O)c3cccc(C(F)(F)F)c3)CC2)C1)N1CCN(CCCc2ccccc2)CC1` [Example 83, [4-(3-phenyl-propyl)-piperazin-1-yl]-[8-(3-trifluoromethyl-benzenesulphonyl)-1-oxa-2,8-diaza-spiro[4,5]dec-2-en-3-yl]-methanone], 52%.

As for `CCCC(=O)N1CCC2(CC1)CC(C(=O)Nc1ccccc1)=NO2` [Example 85, 8-butyryl-1-oxa-2,8-diaza-spiro[4,5]dec-2-ene-3-carboxylic acid phenylamide], testing at 10 µM gave an inhibition of 41%. On the same count and under the same terms, then `O=C(NC1CCCCCCC1)C1=NOC2(CCN(S(=O)(=O)c3ccc(OC(F)(F)F)cc3)CC2)C1` [Example 86, 8-(4-trifluoromethoxy-benzenesulphonyl)-1-oxa-2,8-diaza-spiro[4,5]dec-2-ene-3-carboxylic acid cyclooctylamide], with 46%; and `COCCOCC(=O)N1CCC2(CC1)CC(C(=O)NCc1ccccc1)=NO2` [Example 87, 8-[2-(2-methoxy-ethoxy)-acetyl]-1-oxa-2,8-diaza-spiro[4,5]dec-2-ene-3-carboxylic acid benzylamide], with 40%. With `Cc1cc(C(=O)N2CCC3(CC2)CC(C(=O)NCC(C)C)=NO3)ccc1Br` [Example 88, 8-(4-bromo-3-methyl-benzoyl)-1-oxa-2,8-diaza-spiro[4,5]dec-2-ene-3-carboxylic acid isobutyl-amide], at 10 µM the inhibition was 46%. On the same count and under the same terms, then `CCOC(=O)N1CCC(NC(=O)C2=NOC3(CCN(S(=O)(=O)c4cc([N+](=O)[O-])ccc4C)CC3)C2)CC1` [Example 90, 4-{[8-(2-methyl-5-nitro-benzenesulphonyl)-1-oxa-2,8-diaza-spiro[4,5]dec-2-ene-3-carbonyl]-amino}-piperidine-1-carboxylic acid ethyl ester], with 48%; and `O=C(C1=NOC2(CCN(S(=O)(=O)c3ccc(Cl)s3)CC2)C1)N1CCN(c2ccc(F)cc2)CC1` [Example 91, [8-(5-chloro-thiophene-2-sulphonyl)-1-oxa-2,8-diaza-spiro[4,5]dec-2-en-3-yl]-[4-(4-fluorophenyl)-piperazin-1-yl]-methanone], with 45%. `CN(Cc1cccnc1)C(=O)C1=NOC2(CCN(S(=O)(=O)c3cc(Cl)ccc3Cl)CC2)C1` [Example 92, 8-(2,5-dichloro-benzenesulphonyl)-1-oxa-2,8-diaza-spiro[4,5]dec-2-ene-3-carboxylic acid methyl-pyridin-3-ylmethyl-amide] showed an inhibition at 10 µM of 51%. For `O=C(Cc1ccc(F)c(F)c1)N1CCN(C(=O)C2=NOC3(CCN(S(=O)(=O)c4cccc(C(F)(F)F)c4)CC3)C2)CC1` [Example 93], the “5HT-uptake, 10 μM, % inhibition” value turned out to be 42%.

In turn, `O=C(NCC1CC1)C1=NOC2(CCN(S(=O)(=O)c3cccc(C(F)(F)F)c3)CC2)C1` [Example 94, 8-(3-trifluoromethyl-benzenesulphonyl)-1-oxa-2,8-diaza-spiro[4,5]dec-2-ene-3 carboxylic acid cyclopropylmethyl-amide] displayed an inhibition at 10 µM of 57%.

For `CCOC(=O)CCNC(=O)C1=NOC2(CCN(S(=O)(=O)c3cc([N+](=O)[O-])ccc3C)CC2)C1` [Example 95], the “5HT-uptake, 10 μM, % inhibition” value was 54%.

Consider `N#CCCN(Cc1cccnc1)C(=O)C1=NOC2(CCN(S(=O)(=O)c3cc(Cl)ccc3Cl)CC2)C1` [Example 99, 8-(2,5-dichloro-benzenesulphonyl)-1-oxa-2,8-diaza-spiro[4,5]dec-2-ene-3-carboxylic acid (2-cyano-ethyl)-pyridin-3-ylmethyl-amide], for which the inhibition at 10 µM came out at 44%.

As to `N#CCCN(CC1CCCO1)C(=O)C1=NOC2(CCN(S(=O)(=O)c3cc(Cl)ccc3Cl)CC2)C1` (stereo not shown) [Example 100], the “5HT-uptake, 10 μM, % inhibition” value was found to be 43%.

Take `COc1ccc(S(=O)(=O)N2CCC3(CC2)CC(C(=O)NC(CC(C)C)C(=O)OC(C)(C)C)=NO3)cc1` (stereo not shown) [Example 147, 2-{[8-(4-methoxy-benzenesulphonyl)-1-oxa-2,8-diaza-spiro[4,5]dec-2-ene-3-carbonyl]-amino}-4-methyl-pentanoic acid tert-butyl ester]: the inhibition at 10 µM came to 67%. For `CCOC(=O)CCNC(=O)C1=NOC2(CCN(C(=O)c3c(Cl)ccc(C)c3F)CC2)C1` [Example 148], the “5HT-uptake, 10 μM, % inhibition” value was determined as 47%. Regarding `O=C(NCc1cccs1)C1=NOC2(CCN(C(=O)c3ccccc3Cl)CC2)C1` [Example 152, 8-(2-chloro-benzoyl)-1-oxa-2,8-diaza-spiro[4,5]dec-2-ene-3-carboxylic acid (thiophen-2-ylmethyl)-amide], the inhibition at 10 µM was found to be 41%. `CCSCCNC(=O)C1=NOC2(CCN(C(=O)c3ccc(Br)cc3)CC2)C1` [Example 154]: the “5HT-uptake, 10 μM, % inhibition” value came out at 48%. With `O=C(NCC1CC1)C1=NOC2(CCN(C(=O)c3cccc(Cl)c3Cl)CC2)C1` [Example 157, 8-(2,3-dichloro-benzoyl)-1-oxa-2,8-diaza-spiro[4,5]dec-2-ene-3-carboxylic acid cyclopropylmethyl-amide], 10 µM produced 52% inhibition.
